Experimental findings from article PMC4941420, “A Rational Approach for the Identification of Non-Hydroxamate HDAC6-Selective Inhibitors” (Scientific Reports, 2016) are described below.

Usually IC50 stands for the concentration at which inhibition is half-maximal. By inhibition is commonly meant the change of the read-out against control, counted positive when it falls.

Data set [1] has as its system class I HDACs (HeLa nuclear extracts). Description: HDAC activity of HeLa nuclear extracts (Fluor de Lys). It counts as biochemical, human. The note with it: 100 μM, average of at least 3 independent experiments in duplicates (Table 1).
A further data set has as its target T1, HDAC6 (Homo sapiens, UniProt Q9UBN7).
T1 construct: purchased Sigma Aldrich or Reaction Biology Corporation
T1 sequence (Q9UBN7 1-1215): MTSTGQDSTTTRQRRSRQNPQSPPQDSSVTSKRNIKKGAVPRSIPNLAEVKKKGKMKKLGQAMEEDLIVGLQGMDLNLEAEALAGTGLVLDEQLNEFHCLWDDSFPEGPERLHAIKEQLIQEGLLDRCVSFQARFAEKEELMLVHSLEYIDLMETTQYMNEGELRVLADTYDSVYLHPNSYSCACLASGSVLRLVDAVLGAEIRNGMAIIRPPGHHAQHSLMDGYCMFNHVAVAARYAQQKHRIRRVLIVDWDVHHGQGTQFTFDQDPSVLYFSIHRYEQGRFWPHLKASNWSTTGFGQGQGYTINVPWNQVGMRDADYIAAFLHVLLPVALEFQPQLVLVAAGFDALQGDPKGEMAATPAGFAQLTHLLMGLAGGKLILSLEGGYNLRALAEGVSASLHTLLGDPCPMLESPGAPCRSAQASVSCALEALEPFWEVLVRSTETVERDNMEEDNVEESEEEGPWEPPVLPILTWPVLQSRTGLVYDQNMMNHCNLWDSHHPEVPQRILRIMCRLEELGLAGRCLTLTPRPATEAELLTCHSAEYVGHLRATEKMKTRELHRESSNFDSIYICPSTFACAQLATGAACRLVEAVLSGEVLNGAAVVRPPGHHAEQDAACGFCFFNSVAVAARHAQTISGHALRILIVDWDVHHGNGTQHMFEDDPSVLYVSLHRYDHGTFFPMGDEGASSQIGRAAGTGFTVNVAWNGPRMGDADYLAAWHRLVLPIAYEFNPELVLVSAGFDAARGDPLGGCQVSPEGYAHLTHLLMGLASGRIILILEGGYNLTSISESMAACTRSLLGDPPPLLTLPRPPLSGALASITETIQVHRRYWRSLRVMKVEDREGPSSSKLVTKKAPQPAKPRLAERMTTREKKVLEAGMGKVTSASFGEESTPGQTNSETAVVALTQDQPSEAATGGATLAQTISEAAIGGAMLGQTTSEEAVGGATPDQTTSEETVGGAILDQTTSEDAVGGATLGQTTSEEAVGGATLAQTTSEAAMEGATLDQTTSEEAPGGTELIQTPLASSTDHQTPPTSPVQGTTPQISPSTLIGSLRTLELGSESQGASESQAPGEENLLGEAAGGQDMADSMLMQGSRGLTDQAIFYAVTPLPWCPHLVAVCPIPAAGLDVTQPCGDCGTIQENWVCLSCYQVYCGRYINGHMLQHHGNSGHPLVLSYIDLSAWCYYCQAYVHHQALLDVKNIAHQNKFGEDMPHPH
The experiment in a line: In vitro enzymatic assay HDAC6 (Fluor de Lys). It counts as biochemical.

For another data set, the target named is T2, HDAC2 (Homo sapiens, UniProt Q92769).
T2 construct: purchased Sigma Aldrich or Reaction Biology Corporation
The experiment in a line: In vitro enzymatic assay HDAC2 (Fluor de Lys). The format is biochemical. The note with it: average of at least 2 independent experiments in duplicates ± SEM.

A further data set has as its target T3, HDAC4 (Homo sapiens, UniProt P56524).
T3 construct: purchased Sigma Aldrich or Reaction Biology Corporation
Description: In vitro enzymatic assay HDAC4 (Fluor de Lys). The format is biochemical. The note with it: average of at least 2 independent experiments in duplicates ± SEM.

The test system of data set [2] is α-tubulin acetylation in HeLa cells. Description: Acetyl-α-tubulin sandwich ELISA in HeLa cells. It counts as cell-based, human. The note with it: 48 h. On the procedure: (§1) The acetyl-α-tubulin sandwich ELISA Kit (Pathscan® #7204, Cell Signalling) was used to determine tubulin acetylation levels, and Western blotting was used to evaluate histone H4 acetylation, both methods applied to lysates of treated and non-treated HeLa cells (ATCC CCL-2). Cells were cultured in DMEM medium, 4.5 g/L glucose, L-glutamine (Invitrogen), supplemented with 10% heat-inactivated fetal bovine serum (FBS, Biowest), 100 units/mL penicillin, and 100 μg/mL streptomycin, and 1% non-essential amino acids (Invitrogen) at 37 °C with 5% CO2. Prior to ELISA experiments, cells were seeded into 6-well plates at 150,000 cells/well and transfected with the HDAC6-GFP construct (pEGFP.N1-HDAC6, Addgene)[58], using the Lipofectamine 2000 reagent (Invitrogen). Cells were then treated with test compounds, standards or vehicle (0.5% DMSO in culture medium) for 48 h. After the incubation time, cells were washed with cold DPBS (Invitrogen) and lysates were obtained by recovering cells in cold lysis buffer provided in the ELISA kit, supplemented with a protease inhibitor tablet (SigmaFast, Sigma Aldrich). Briefly, cells were harvested in DPBS and centrifuged. The cell pellet was suspended in 100 μL lysis buffer, vortexed, and kept on melting ice for 30 min. Lysates were then obtained by recovering the supernatant after a centrifugation step of 10 min at 11,000 g, 4 °C. Protein concentration was determined by fluorimetry using the Qubit protein assay kit (Invitrogen). Cell lysates were tested at 1 mg/mL following the instructions provided by the ELISA kit manufacturer. For the Western blotting, cells were seeded into 100 mm Petri dishes and treated for 6 h. After the incubation time, cells were washed with cold DPBS (Invitrogen) supplemented with a protease inhibitor tablet (Sigma Fast, Sigma Aldrich), and lysates were obtained by recovering cells in 100 μL cold lysis buffer (10 mM Hepes pH 7.9, 1.5 mM MgCl2, 10 mM KCl, 0.5 mM DTT, 1.5 mM PMSF, 0.2M HCl) the same way as described above. […]

For data set [3], the system named is histone H4 acetylation in HeLa cells. The experiment in a line: Acetyl histone H4 Western blotting in HeLa cells. The format is cell-based, human. The note with it: 500 μM, 6 h. Here is the method:
as §1, with “Lysates were then obtained by recovering the supernatant after a centrifugation step of 10 min at 11,000 g, 4 °C.” left out, “(Invitrogen).” for “(Invitrogen). Cell lysates were tested at 1 mg/mL following the instructions provided by the ELISA kit manufacturer. For the Western blotting, cells were seeded into 100 mm Petri dishes and treated for 6 h. After the incubation time, cells were washed with cold DPBS (Invitrogen) supplemented with a protease inhibitor tablet (Sigma Fast, Sigma Aldrich), and lysates were obtained by recovering cells in 100 μL cold lysis buffer (10 mM Hepes pH 7.9, 1.5 mM MgCl2, 10 mM KCl, 0.5 mM DTT, 1.5 mM PMSF, 0.2M HCl) the same way as described above.”

The next data set is described as follows: Cytotoxicity XTT, HeLa. It counts as cell-based, human. The note with it: human, HeLa cells, mean ± SD of 3 independent experiments in triplicate, read-out: cytotoxic IC50 HeLa. Here is the method: HeLa and HEK 293 cells (ATCC CRL-1573) were cultured as described above and seeded into 96-well plates at 400 cells/well. Test and standard compounds were added to plate wells in triplicate (0.05% DMSO in culture medium) in a range of six concentrations. Following 72 h of incubation, […] of an activated XTT solution was added to the cells (1 mg/mL). The absorbance was measured at 450 nm after 2 h incubation at 37 °C. The growth of the compound-treated cells was compared with the growth of vehicle-treated control cells. IC50 values were calculated with GraphPad Prism 6.0.

A short description of data set [4]: Solubility remarks during testing. The format is physicochemical. The note with it: concentrations higher than 500 μM cannot be tested.

T2 sequence (Q92769 whole entry): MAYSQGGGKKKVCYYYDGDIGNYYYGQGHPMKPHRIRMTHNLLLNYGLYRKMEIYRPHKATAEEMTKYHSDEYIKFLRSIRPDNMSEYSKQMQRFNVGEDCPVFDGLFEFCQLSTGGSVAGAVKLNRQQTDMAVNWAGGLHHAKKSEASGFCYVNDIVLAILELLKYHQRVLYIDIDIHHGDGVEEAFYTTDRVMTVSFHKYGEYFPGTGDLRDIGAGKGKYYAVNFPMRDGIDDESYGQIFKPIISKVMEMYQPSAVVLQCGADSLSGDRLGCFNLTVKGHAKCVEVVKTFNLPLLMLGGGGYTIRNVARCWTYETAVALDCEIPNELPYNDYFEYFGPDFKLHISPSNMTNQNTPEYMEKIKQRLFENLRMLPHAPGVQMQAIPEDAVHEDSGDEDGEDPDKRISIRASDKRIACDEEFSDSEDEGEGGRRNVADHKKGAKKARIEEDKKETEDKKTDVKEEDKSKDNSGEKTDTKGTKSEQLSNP
T3 sequence (P56524 whole entry): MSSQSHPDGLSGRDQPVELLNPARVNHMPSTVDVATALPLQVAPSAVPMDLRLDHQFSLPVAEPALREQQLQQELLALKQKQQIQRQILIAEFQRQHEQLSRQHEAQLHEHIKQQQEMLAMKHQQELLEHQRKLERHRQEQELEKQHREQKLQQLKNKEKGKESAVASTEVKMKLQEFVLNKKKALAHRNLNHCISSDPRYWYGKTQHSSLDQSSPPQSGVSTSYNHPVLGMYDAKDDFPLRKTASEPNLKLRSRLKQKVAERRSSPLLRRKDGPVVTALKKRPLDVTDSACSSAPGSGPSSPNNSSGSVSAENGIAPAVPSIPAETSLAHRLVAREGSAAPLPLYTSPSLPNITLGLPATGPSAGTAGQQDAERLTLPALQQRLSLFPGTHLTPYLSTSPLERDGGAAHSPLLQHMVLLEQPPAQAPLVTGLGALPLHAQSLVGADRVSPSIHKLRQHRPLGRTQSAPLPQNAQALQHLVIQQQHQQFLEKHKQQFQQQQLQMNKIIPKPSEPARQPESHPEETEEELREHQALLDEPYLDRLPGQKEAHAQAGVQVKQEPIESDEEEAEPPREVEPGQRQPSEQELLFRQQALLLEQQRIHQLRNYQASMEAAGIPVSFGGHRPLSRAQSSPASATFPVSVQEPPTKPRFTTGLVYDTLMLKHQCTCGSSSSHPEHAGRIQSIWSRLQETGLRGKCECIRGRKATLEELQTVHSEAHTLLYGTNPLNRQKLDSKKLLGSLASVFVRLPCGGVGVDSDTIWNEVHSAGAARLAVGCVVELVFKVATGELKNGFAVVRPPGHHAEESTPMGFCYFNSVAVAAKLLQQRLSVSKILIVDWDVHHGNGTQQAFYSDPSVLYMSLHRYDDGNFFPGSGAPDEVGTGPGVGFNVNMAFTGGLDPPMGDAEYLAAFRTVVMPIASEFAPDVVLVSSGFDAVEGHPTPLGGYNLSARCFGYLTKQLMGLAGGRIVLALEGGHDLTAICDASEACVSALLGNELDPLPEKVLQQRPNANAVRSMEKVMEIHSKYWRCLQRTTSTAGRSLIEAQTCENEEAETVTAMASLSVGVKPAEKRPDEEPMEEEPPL

Regarding `NNC(=O)c1ccc(COc2ccccc2Cl)cc1` [AK-14], the “HeLa % of inhibition at 100 μM” value in data set [1] is given as 2.7 ± 1.3%. For the same compound, the IC50 against HDAC6 (average of at least 2 independent experiments in duplicates ± SEM) is 12.8 ± 5.4 µM; at HDAC2 it was > 1000 µM; against HDAC4 it was > 300 µM. Further, the inhibition at 100 µM at HDAC6 (read-out: HDAC6 % of inhibition at 100 µM) was 70.7 ± 6%. The acetylated tubulin levels result in data set [2] (250 μM) was “less remarkable effect”; in data set [2] (500 μM), “significantly increase”. The “acetylation profile of histone H4” value in data set [3] was “did not change”. Also, the 50% inhibitory concentration (IC50) at 72 h in the data set “Cytotoxicity XTT, HeLa” is 299 ± 56.1 µM. Also, the “solubility remark in HeLa cell assay” value in data set [4] is recorded as “solubility issues”.
